pIC50: −log10 of the molar value.
Tests used:
[1] = system: diuresis/natriuresis in volume-loaded rats; assay: In-vivo effect on diuresis/natriuresis in volume-loaded rats; set-up: species or system male Wistar rats; conditions: 60 min collection
Description: The in-vivo activity was investigated in volume-loaded rats. In this experiment, a high cardiac filling pressure was produced by an infusion of isotonic sodium chloride solution, as a consequence of which ANP release and, as a result, diuresis/natriuresis occurred.
The experiments were carried out using male Wistar rats having a body weight of 200-400 g. Under neuroleptic analgesia (fentanyl; Hypnorm®, manufacturer Janssen), a catheter was tied into the right femoral vein for the background infusion and the volume loading with isotonic sodium chloride solution. After opening the abdomen, a second catheter was inserted in the bladder and the urethra was tied off so that a measurement of urinary volume, natriuresis and kaliuresis was possible.
The abdomen was closed again, and the animals received a continuous infusion of sodium chloride solution (0.5 ml/100 g of body weight) over the total experimental period of 2 hours. After an equilibration period of 30 minutes, urine samples were collected three times in each case over a period of 10 minutes in a preliminary phase before test substance administration. These preliminary values ("predrug" values) were determined in order to check that a continuous urine flow was taking place in the test animals.
The solutions comprising the test substances were then administered intravenously (bolus injection in the femoral vein) or orally (by means of stomach tube) to groups of 10 rats in each case. For both administration forms, one control animal group in each case received only placebo solutions which contained no active compound. 5 minutes after i.v. administration or 120 minutes after oral administration of the substances, the rats were loaded i.v. with an increased volume of sodium chloride solution (2 ml/100 g of body weight in 2 minutes) and the urine was collected over a period of 60 minutes. The amounts of urine produced in this period were determined, and the sodium and potassium contents contained therein were measured. From the amounts of urine produced, the increase in excretion which took place under volume loading is read off compared with the preliminary values.
In the following Table 1, the increases in urine excretion which have taken place under volume loading after administration of the test substances are indicated in % relative to the urine excretion which has taken place under volume loading after administration of placebo. Furthermore, the amounts of sodium and potassium excreted under volume loading after test substance administration are also indicated in % of the amounts of sodium and potassium excreted under volume loading after administration of placebo. The example numbers in Tables 1 and 2 relate to the subsequent synthesis examples.

[2] = target: neutral endopeptidase (NEP) (E.C. 3.4.24.11) (Homo sapiens, UniProt P08473); assay: In-vitro NEP inhibitory action (hydrolytic degradation of Met-encephalin); assay type: biochemical; conditions: purified NEP, Met-encephalin substrate, pH 7.4, 37° C.; read-out: IC50 value for NEP inhibition
Description: In this test, the measure of the inhibitory activity of the substances determined was their IC50 value. The IC50 value of a test substance having enzyme-inhibitory activity is that concentration of the test substance at which 50% of the enzymatic activity of the NEP is blocked.
To carry out the test, respective 100 μl samples of various incubation solutions comprising 10 ng of purified NEP (E.C. 3.4.24.11) and different amounts of test substance and 20 μl substrate (Met-encephalin) and 50 mM tris buffer (tris(hydroxymethyl)aminomethane/HCl, pH 7.4) were prepared. […]
The incubation solutions were incubated for 30 minutes at 37° C. in a shaking water bath. […] The stopped incubation solution was then centrifuged at 12,000×g for 3 minutes, and the concentrations of unreacted substrate and of hydrolysis products formed by the enzymatic reaction were determined in the supernatant. For this purpose, samples of the respective supernatants were separated by high-pressure liquid chromatography (HPLC) on hydrophobicized silica gel, and the products of the enzymatic reaction and unreacted substrate were determined photometrically at a wavelength of 205 nm. […]
The IC50 value of the test substances was calculated in a known manner from the concentrations of hydrolysis products and unreacted substrate measured in the different samples.

[3] = Determination of the minimum toxic dose (i.v.) in rats; assay type: in vivo; conditions: 215 mg/kg i.v., observed for one week
Description: I.v. maximum doses of 215 mg/kg of the test substances (dissolved in 0.1 N aqueous NaOH solution, whose pH had been adjusted to 7.1) were administered to groups of 10 rats each of 250 g body weight (age 5 to 6 weeks). From the time of administration, the animals were carefully observed for 5 hours for clinically recognizable signs of toxicity. Moreover, they were observed twice daily until one week had passed. After expiry of this week, each individual animal was completely dissected and all organs were examined macroscopically. If death or severe toxic symptoms was observed, increasingly smaller doses were administered to further rats until toxic symptoms no longer occured. The lowest dose which caused death or severe toxic symptoms was determined to be the minimum toxic dose.

[4] = system: endothelin-converting enzyme (ECE); assay: In-vivo ECE inhibitory action: blood pressure increase induced by BIG-ET in rats; set-up: species or system male CD rats
Description: ET is an endogenous strongly vasoconstrictory active substance. An increase in the ET level leads to a blood pressure increase. On infusion of BIG-ET, a blood pressure increase takes place to the extent at which ET is formed from this by ECE-catalysed cleavage. As a measure of the ECE-inhibitory action of the substances, their inhibitory action on the blood pressure increase induced by infusion of BIG-ET was determined.
The experiments were carried out using male CD® rats from Charles River Wiga having a body weight of 220-280 g. Under ketamine/xylazine anaesthesia, a catheter for substance administration was tied into the left jugular vein and a second for the measurement of the blood pressure was tied into the left carotid artery of the animals. After a recovery time of 30 minutes, the test substance was administered intravenously (i.v.) or intraduodenally (i.d.) to the animals as a solution. After administration of the test substances, the animals each received BIG-ET in a dose of 0.5 nmole/kg intravenously. The period between administration of the test substance and the administration of BIG-ET was 5 minutes in each case on i.v. administration, 15 minutes in each case on i.d. administration of the test substances of Example Nos. 18 and 22, and 30 minutes in each case on i.d. administration of the test substances of Example Nos. 8 and 20. During the next 30 minutes, the systolic and the diastolic blood pressure were recorded every 5 minutes. With untreated animals, the infusion of 0.5 nmol/kg of big endothelin leads reproducibly to a drastic blood pressure increase, which lasts about 30 minutes. The maximum of the blood pressure increase is reached after about 5 minutes.
In the following Table 2, the maximum increase in the blood pressure after BIG-ET administration is indicated for control animals treated with placebo solution and for animals which have been pretreated with the test substance solutions in different doses.

[5] = 30 μmol/kg i.d., 30 min before BIG-ET 0.5 nmole/kg i.v., control 40
[6] = 30 μmol/kg i.d., 30 min before BIG-ET 0.5 nmole/kg i.v., control 61
[7] = 30 μmol/kg i.d., 15 min before BIG-ET 0.5 nmole/kg i.v., control 40
[8] = 30 μmol/kg i.d., 15 min before BIG-ET 0.5 nmole/kg i.v., control 61

Chain of neutral endopeptidase (NEP) (E.C. 3.4.24.11) (P08473 whole entry, species assumed): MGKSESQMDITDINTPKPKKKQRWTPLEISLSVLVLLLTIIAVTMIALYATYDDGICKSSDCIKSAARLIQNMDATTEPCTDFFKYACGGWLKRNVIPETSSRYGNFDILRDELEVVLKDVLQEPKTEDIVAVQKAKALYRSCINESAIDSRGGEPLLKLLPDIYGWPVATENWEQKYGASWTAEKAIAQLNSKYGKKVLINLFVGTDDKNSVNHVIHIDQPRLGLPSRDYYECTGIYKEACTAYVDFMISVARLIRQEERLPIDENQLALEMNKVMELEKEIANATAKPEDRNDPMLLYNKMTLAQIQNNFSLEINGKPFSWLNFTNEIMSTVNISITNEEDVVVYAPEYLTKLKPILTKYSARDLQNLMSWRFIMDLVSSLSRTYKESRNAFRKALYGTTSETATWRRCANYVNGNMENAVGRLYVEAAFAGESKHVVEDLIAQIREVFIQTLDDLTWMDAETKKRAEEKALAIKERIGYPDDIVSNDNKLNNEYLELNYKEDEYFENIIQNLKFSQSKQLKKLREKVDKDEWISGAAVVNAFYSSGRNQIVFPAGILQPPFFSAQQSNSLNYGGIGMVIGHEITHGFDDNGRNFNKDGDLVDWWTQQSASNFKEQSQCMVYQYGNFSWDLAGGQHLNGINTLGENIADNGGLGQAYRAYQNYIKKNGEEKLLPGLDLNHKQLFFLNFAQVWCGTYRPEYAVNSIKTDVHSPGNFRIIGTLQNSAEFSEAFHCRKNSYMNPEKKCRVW

Row | Compound | Blood pressure increase after BIG-ET administration, diastolic pressure (maximum) [4, 5] | Blood pressure increase after BIG-ET administration, systolic pressure (maximum) [4, 6] | Increase in urine excretion under volume loading after administration of test substance in % relative to the urine excretion under volume loading after administration of placebo ([1]; 30.0 μmole/kg p.o.) | K excretion under volume loading: amount excreted after administration of test substance in % of the amount excreted after administration of placebo ([1]; 30.0 μmole/kg p.o.) | Na excretion under volume loading: amount excreted after administration of test substance in % of the amount excreted after administration of placebo ([1]; 30.0 μmole/kg p.o.) | Blood pressure increase after BIG-ET administration, diastolic pressure (maximum) [4, 7] | Blood pressure increase after BIG-ET administration, systolic pressure (maximum) [4, 8] | also measured
1 | O=C(O)CN1C(=O)[C@@H](NC(=O)C2(CP(=O)(O)O)CCCC2)CCc2ccccc21 [Example 2, (3S)-3-(1-Phosphonomethylcyclopentane-1-carbonylamino)-2,3,4,5-tetrahydro-2-oxo-1H-1-benzazepine-1-acetic acid] |  |  |  |  |  |  |  | Increase in urine excretion under volume loading after administration of test substance in % relative to the urine excretion under volume loading after administration of placebo ([1]; 6.0 μmole/kg i.v.): 117%; K excretion under volume loading: amount excreted after administration of test substance in % of the amount excreted after administration of placebo ([1]; 6.0 μmole/kg i.v.): 116%; Na excretion under volume loading: amount excreted after administration of test substance in % of the amount excreted after administration of placebo ([1]; 6.0 μmole/kg i.v.): 147%; Increase in urine excretion under volume loading after administration of test substance in % relative to the urine excretion under volume loading after administration of placebo ([1]; 20.0 μmole/kg i.v.): 149%; K excretion under volume loading: amount excreted after administration of test substance in % of the amount excreted after administration of placebo ([1]; 20.0 μmole/kg i.v.): 182%; Na excretion under volume loading: amount excreted after administration of test substance in % of the amount excreted after administration of placebo ([1]; 20.0 μmole/kg i.v.): 246%; pIC50 [2]: 8.77; signs of toxicity at maximum dose [3]: no significant signs of toxicity; Blood pressure increase after BIG-ET administration, diastolic pressure (maximum) ([4]; 1 mg/kg i.v., 5 min before BIG-ET 0.5 nmole/kg i.v., control 32): 23 mm Hg; Blood pressure increase after BIG-ET administration, systolic pressure (maximum) ([4]; 1 mg/kg i.v., 5 min before BIG-ET 0.5 nmole/kg i.v., control 65): 38 mm Hg; Blood pressure increase after BIG-ET administration, diastolic pressure (maximum) ([4]; 3 mg/kg i.v., 5 min before BIG-ET 0.5 nmole/kg i.v., control 32): 14 mm Hg; Blood pressure increase after BIG-ET administration, systolic pressure (maximum) ([4]; 3 mg/kg i.v., 5 min before BIG-ET 0.5 nmole/kg i.v., control 65): 27 mm Hg; Blood pressure increase after BIG-ET administration, diastolic pressure (maximum) ([4]; 10 mg/kg i.v., 5 min before BIG-ET 0.5 nmole/kg i.v., control 32): 0.4 mm Hg; Blood pressure increase after BIG-ET administration, systolic pressure (maximum) ([4]; 10 mg/kg i.v., 5 min before BIG-ET 0.5 nmole/kg i.v., control 65): -1 mm Hg
2 | CCOP(=O)(CC1(C(=O)N[C@H]2CCc3ccccc3N(CC(=O)OC(C)(C)C)C2=O)CCCC1)OCc1ccccc1 (stereo partly drawn) [Example 8, tert-Butyl (3S)-3-(1-benzylethylphosphonomethylcyclopentane-1-carbonylamino)-2,3,4,5-tetrahydro-2-oxo-1H-1-benzazepine-1-acetate] | 26 mm Hg | 25 mm Hg |  |  |  |  |  | 
3 | CCOC(=O)CN1C(=O)[C@@H](NC(=O)C2(CP(=O)(O)O)CCCC2)CCc2ccccc21 [Example 13, Ethyl (3S)-3-(1-phosphonomethylcyclopentane-1-carbonylamino)-2,3,4,5-tetrahydro-2-oxo-1H-1-benzazepine-1-acetate] |  |  | 168% | 87% | 128% |  |  | 
4 | CCOP(=O)(CC1(C(=O)N[C@H]2CCc3ccccc3N(CC(=O)OC(C)(C)C)C2=O)CCCC1)OCOC(=O)C(C)(C)C (stereo partly drawn) [Example 18, tert-Butyl (3S)-3-[1-(pivaloyloxymethylethylphosphono-methyl)cyclopentane-1-carbonylamino]-2,3,4,5-tetrahydro-2-oxo-1H-benzazepine-1-acetate] |  |  |  |  |  | 17 mm Hg | 19 mm Hg | 
5 | CC(C)(C)OC(=O)CN1C(=O)[C@@H](NC(=O)C2(CP(=O)(O)O)CCCC2)CCc2ccccc21 [Example 20, tert-Butyl (3S)-3-[1-phosphonomethylcyclopentane-1-carbonylamino)-2,3,4,5-tetrahydro-2-oxo-1H-1-benzazepine-1-acetate] | 37 mm Hg | 50 mm Hg |  |  |  |  |  | 
6 | CCOP(=O)(O)CC1(C(=O)NC2CCc3ccccc3N(CC(=O)O)C2=O)CCCC1 (stereo not shown) [Example 22] |  |  | 127% | 106% | 161% | 21 mm Hg | 36 mm Hg | 

From patent US5952327A, “Phosphonic acid-substituted benzazepinone-n-acetic acid derivatives process for their preparation and pharmaceutical compositions comprising them” (Solvay Pharmaceuticals GmbH, priority 1997, dated 1999)
